Legend:
[1] = system: Glomerella lagenarium (Colletotrichum lagenarium); assay: Fungicidal activity against Glomerella lagenarium (Colletotrichum lagenarium) liquid culture / cucumber / preventative (anthracnose); assay type: cell-based; settings: Colletotrichum orbiculare; 20 ppm in the applied formulation; liquid culture (PDB), inhibition of growth measured photometrically 3 to 4 days after application; compared to untreated; read-out: disease control
Method in brief: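 Conidia from cryogenic storage mixed into potato dextrose broth and added to compound in DMSO in microtiter plates. Incubated at 24° C.; growth inhibition read photometrically 3 to 4 days after application. Disease control expressed relative to untreated control, with compound at 20 ppm in the applied formulation.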

[2] = system: Puccinia recondita f. Sp. Tritici; assay: Fungicidal activity against Puccinia recondita f. sp. tritici / wheat / leaf disc preventative (brown rust); assay type: in vivo; settings: foliar, 200 ppm in the applied formulation, wheat leaf segments cv. Kanzler, preventative (inoculated 1 day after application), compared to untreated, read-out: disease control
Method in brief: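 Segments of wheat cv. Kanzler on water agar were sprayed with compound and inoculated with spores 1 day later. They were kept at 19 °C, 75% rh and 12 h light/12 h dark. Percent disease control versus untreated was scored 7–9 days after application; compounds were tested at 200 ppm.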

[3] = system: Phakopsora pachyrhizi; assay: Fungicidal activity against Phakopsora pachyrhizi / soybean / leaf disc preventative (Asian soybean rust); assay type: in vivo; settings: foliar, 200 ppm in the applied formulation, soybean leaf disks, compared to untreated, read-out: disease control
Method: Leaf disks or leaf segments of various plant species are cut from plants grown in a greenhouse. The cut leaf disks or segments are placed in multiwell plates (24-well format) onto water agar. The leaf disks are sprayed with a test solution before (preventative) or after (curative) inoculation. Compounds to be tested are prepared as DMSO solutions (max. 10 mg/mL) which are diluted to the appropriate concentration with 0.025% Tween20 just before spraying. The inoculated leaf disks or segments are incubated under defined conditions (temperature, relative humidity, light, etc.) according to the respective test system. A single evaluation of disease level is carried out 3 to 14 days after inoculation, depending on the pathosystem. Percent disease control relative to the untreated check leaf disks or segments is then calculated. Soybean leaf disks are placed on water agar in multiwell plates (24-well format) and sprayed with the formulated test compound diluted in water. One day after application leaf discs are inoculated by spraying a spore suspension on the lower leaf surface. After an incubation period in a climate cabinet of 24-36 hours in darkness at 20° C. and 75% rh leaf disc are kept at 20° C. with 12 h light/day and 75% rh. The activity of a compound is assessed as percent disease control compared to untreated when an appropriate level of disease damage appears in untreated check leaf disks (12 to 14 days after application). The following compounds at 200 ppm in the applied formulation give at least 80% disease control in this test when compared to untreated control leaf disks under the same conditions, which show extensive disease development.

[4] = system: Puccinia recondita f. Sp. Tritici; assay: Fungicidal activity against Puccinia recondita f. sp. tritici / wheat / leaf disc curative (brown rust); assay type: in vivo; settings: foliar, 24 h, 200 ppm in the applied formulation, wheat leaf segments cv. Kanzler, curative (applied 1 day after inoculation), compared to untreated, read-out: disease control
Method: Leaf disks or leaf segments of various plant species are cut from plants grown in a greenhouse. The cut leaf disks or segments are placed in multiwell plates (24-well format) onto water agar. The leaf disks are sprayed with a test solution before (preventative) or after (curative) inoculation. Compounds to be tested are prepared as DMSO solutions (max. 10 mg/mL) which are diluted to the appropriate concentration with 0.025% Tween20 just before spraying. The inoculated leaf disks or segments are incubated under defined conditions (temperature, relative humidity, light, etc.) according to the respective test system. A single evaluation of disease level is carried out 3 to 14 days after inoculation, depending on the pathosystem. Percent disease control relative to the untreated check leaf disks or segments is then calculated. Wheat leaf segments cv. Kanzler are placed on agar in multiwell plates (24-well format). The leaf segments are then inoculated with a spore suspension of the fungus. Plates were stored in darkness at 19C and 75% relative humidity. The formulated test compound diluted in water was applied 1 day after inoculation. The leaf segments were incubated at 19° C. and 75% relative humidity under a light regime of 12 hours light/12 hours darkness in a climate cabinet and the activity of a compound was assessed as percent disease control compared to untreated when an appropriate level of disease damage appears in untreated check leaf segments (6 to 8 days after application). The following compounds at 200 ppm in the applied formulation give at least 80% disease control in this test when compared to untreated control leaf disks under the same conditions, which show extensive disease development.

CCOC(=O)c1cnn(Cc2ccc(-c3noc(C(F)(F)F)n3)s2)c1 [Compound 1.1, ethyl 1-[[5-[5-(trifluoromethyl)-1,2,4-oxadiazol-3-yl]-2-thienyl]methyl]pyrazole-4-carboxylate]
≥ 80%: inhibition of growth at 20 ppm [1] | pest or weed control at 200 ppm [2] | pest or weed control at 200 ppm [3] | pest or weed control at 200 ppm [4]

COC(=O)c1ncn(Cc2ccc(-c3noc(C(F)(F)F)n3)s2)n1 [Compound 1.6, methyl 1-[[5-[5-(trifluoromethyl)-1,2,4-oxadiazol-3-yl]-2-thienyl]methyl]-1,2,4-triazole-3-carboxylate]
≥ 80%: inhibition of growth at 20 ppm [1] | pest or weed control at 200 ppm [2] | pest or weed control at 200 ppm [3] | pest or weed control at 200 ppm [4]

CN(C)c1ncnn1Cc1ccc(-c2noc(C(F)(F)F)n2)s1 [Compound 1.13, N,N-dimethyl-2-[[5-[5-(trifluoromethyl)-1,2,4-oxadiazol-3-yl]-2-thienyl]methyl]-1,2,4-triazol-3-amine]
≥ 80%: inhibition of growth at 20 ppm [1] | pest or weed control at 200 ppm [2] | pest or weed control at 200 ppm [3] | pest or weed control at 200 ppm [4]

Nc1nc(C(F)F)nn1Cc1ccc(-c2noc(C(F)(F)F)n2)s1 [Compound 1.14, 5-(difluoromethyl)-2-[[5-[5-(trifluoromethyl)-1,2,4-oxadiazol-3-yl]-2-thienyl]methyl]-1,2,4-triazol-3-amine]
≥ 80%: inhibition of growth at 20 ppm [1] | pest or weed control at 200 ppm [2] | pest or weed control at 200 ppm [3] | pest or weed control at 200 ppm [4]

FC(F)(F)c1nc(-c2ccc(Cn3ccnc3)s2)no1 [Compound 1.17, 3-[5-(imidazol-1-ylmethyl)-2-thienyl]-5-(trifluoromethyl)-1,2,4-oxadiazole]
≥ 80%: inhibition of growth at 20 ppm [1] | pest or weed control at 200 ppm [2] | pest or weed control at 200 ppm [3] | pest or weed control at 200 ppm [4]

COCc1nn(Cc2ccc(-c3noc(C(F)(F)F)n3)s2)cc1C(=O)OC [Compound 1.19, methyl 3-(methoxymethyl)-1-[[5-[5-(trifluoromethyl)-1,2,4-oxadiazol-3-yl]-2-thienyl]methyl]pyrazole-4-carboxylate]
≥ 80%: inhibition of growth at 20 ppm [1] | pest or weed control at 200 ppm [2] | pest or weed control at 200 ppm [3] | pest or weed control at 200 ppm [4]

Cc1cc(C)n(Cc2ccc(-c3noc(C(F)(F)F)n3)s2)n1 [Compound 1.21, 3-[5-[(3,5-dimethylpyrazol-1-yl)methyl]-2-thienyl]-5-(trifluoromethyl)-1,2,4-oxadiazole]
≥ 80%: inhibition of growth at 20 ppm [1] | pest or weed control at 200 ppm [2] | pest or weed control at 200 ppm [3] | pest or weed control at 200 ppm [4]

CN(C)C(=O)c1ccnn1Cc1ccc(-c2noc(C(F)(F)F)n2)s1 [Compound 1.58, N,N-dimethyl-2-[[5-[5-(trifluoromethyl)-1,2,4-oxadiazol-3-yl]-2-thienyl]methyl]pyrazole-3-carboxamide]
≥ 80%: pest or weed control at 200 ppm [2] | pest or weed control at 200 ppm [3] | pest or weed control at 200 ppm [4]

CCC(C)NC(=O)c1ncn(Cc2ccc(-c3noc(C(F)(F)F)n3)s2)n1 (stereo not shown) [Compound 1.144, N-sec-butyl-1-[[5-[5-(trifluoromethyl)-1,2,4-oxadiazol-3-yl]-2-thienyl]methyl]-1,2,4-triazole-3-carboxamide]
≥ 80%: inhibition of growth at 20 ppm [1] | pest or weed control at 200 ppm [2] | pest or weed control at 200 ppm [4]

CC(C)(C)CNC(=O)c1ncn(Cc2ccc(-c3noc(C(F)(F)F)n3)s2)n1 [Compound 1.145, N-(2,2-dimethylpropyl)-1-[[5-[5-(trifluoromethyl)-1,2,4-oxadiazol-3-yl]-2-thienyl]methyl]-1,2,4-triazole-3-carboxamide]
≥ 80%: inhibition of growth at 20 ppm [1] | pest or weed control at 200 ppm [2] | pest or weed control at 200 ppm [4]

C=CCNC(=O)c1ncn(Cc2ccc(-c3noc(C(F)(F)F)n3)s2)n1 [Compound 1.151, N-allyl-1-[[5-[5-(trifluoromethyl)-1,2,4-oxadiazol-3-yl]-2-thienyl]methyl]-1,2,4-triazole-3-carboxamide]
≥ 80%: inhibition of growth at 20 ppm [1] | pest or weed control at 200 ppm [2] | pest or weed control at 200 ppm [4]

CON(C)C(=O)c1ccnn1Cc1ccc(-c2noc(C(F)(F)F)n2)s1 [Compound 1.158, N-methoxy-N-methyl-2-[[5-[5-(trifluoromethyl)-1,2,4-oxadiazol-3-yl]-2-thienyl]methyl]pyrazole-3-carboxamide]
≥ 80%: inhibition of growth at 20 ppm [1] | pest or weed control at 200 ppm [2] | pest or weed control at 200 ppm [4]

CC(C)CNC(=O)c1ccnn1Cc1ccc(-c2noc(C(F)(F)F)n2)s1 [Compound 1.160, N-isobutyl-2-[[5-[5-(trifluoromethyl)-1,2,4-oxadiazol-3-yl]-2-thienyl]methyl]pyrazole-3-carboxamide]
≥ 80%: inhibition of growth at 20 ppm [1] | pest or weed control at 200 ppm [2] | pest or weed control at 200 ppm [4]

CCN(CC)C(=O)c1ccnn1Cc1ccc(-c2noc(C(F)(F)F)n2)s1 [Compound 1.161, N,N-diethyl-2-[[5-[5-(trifluoromethyl)-1,2,4-oxadiazol-3-yl]-2-thienyl]methyl]pyrazole-3-carboxamide]
≥ 80%: inhibition of growth at 20 ppm [1] | pest or weed control at 200 ppm [2] | pest or weed control at 200 ppm [4]

O=C(c1ccnn1Cc1ccc(-c2noc(C(F)(F)F)n2)s1)N1CCOCC1 [Compound 1.166, morpholino-[2-[[5-[5-(trifluoromethyl)-1,2,4-oxadiazol-3-yl]-2-thienyl]methyl]pyrazol-3-yl]methanone]
≥ 80%: inhibition of growth at 20 ppm [1] | pest or weed control at 200 ppm [2] | pest or weed control at 200 ppm [4]

C#CCNC(=O)c1ccnn1Cc1ccc(-c2noc(C(F)(F)F)n2)s1 [Compound 1.168, N-prop-2-ynyl-2-[[5-[5-(trifluoromethyl)-1,2,4-oxadiazol-3-yl]-2-thienyl]methyl]pyrazole-3-carboxamide]
≥ 80%: inhibition of growth at 20 ppm [1] | pest or weed control at 200 ppm [2] | pest or weed control at 200 ppm [4]

CCN(C)C(=O)c1ccnn1Cc1ccc(-c2noc(C(F)(F)F)n2)s1 [Compound 1.169, N-ethyl-N-methyl-2-[[5-[5-(trifluoromethyl)-1,2,4-oxadiazol-3-yl]-2-thienyl]methyl]pyrazole-3-carboxamide]
≥ 80%: inhibition of growth at 20 ppm [1] | pest or weed control at 200 ppm [2] | pest or weed control at 200 ppm [4]

From patent publication US11358957B2, “Microbiocidal oxadiazole derivatives” (SYNGENTA PARTICIPATIONS AG, priority 2017, dated 2022)
